# Measurements taken from US20260250290A1 (BRISTOL-MYERS SQUIBB COMPANY, priority 2023, published 2026).
# Structures can show the parent of a compound that is named as a salt.
# Target: T1, full length SGK1 (Homo sapiens, UniProt O00141)
# T1 construct: 125 μM full length SGK1 (Life Technologies Part #PR7358A); purchased Life Technologies PR7358A
# T1 sequence (O00141 1-431): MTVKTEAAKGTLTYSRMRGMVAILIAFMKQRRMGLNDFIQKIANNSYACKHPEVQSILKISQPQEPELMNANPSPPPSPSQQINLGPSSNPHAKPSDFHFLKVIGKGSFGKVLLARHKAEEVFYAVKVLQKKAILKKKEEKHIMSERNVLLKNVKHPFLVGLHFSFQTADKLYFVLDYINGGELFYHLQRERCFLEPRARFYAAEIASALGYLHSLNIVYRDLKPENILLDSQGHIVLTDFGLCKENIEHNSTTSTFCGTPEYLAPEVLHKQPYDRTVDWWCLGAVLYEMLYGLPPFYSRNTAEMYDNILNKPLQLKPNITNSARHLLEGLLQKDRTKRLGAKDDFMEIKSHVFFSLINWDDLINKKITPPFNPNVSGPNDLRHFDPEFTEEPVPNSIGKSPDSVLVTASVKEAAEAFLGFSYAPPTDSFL
# Assay: SGK1 inhibition Assay A (Caliper LabChip electrophoretic separation of fluorescent peptide substrate and phosphorylated product)
# Type: biochemical
# Settings: Assay A; 20 μM ATP, 40 min incubation; read-out: SGK1 IC50
row,IC50 [nM],Compound
1,6,"CC(=O)N1CC=C(c2cc(N3CCC[C@@H](NC(=O)c4sc(C(F)F)cc4OC4CCN(C)CC4)C3)c3c(N)ncnn23)C1 [Example 438, (R)—N-(1-(7-(1-acetyl-2,5-dihydro-1H-pyrrol-3-yl)-4-aminopyrrolo[2,1-f][1,2,4]triazin-5-yl)piperidin-3-yl)-5-(difluoromethyl)-3-((1-methylpiperidin-4-yl)oxy)thiophene-2-carboxamide]"
2,0.4,Nc1ncnn2c(-c3ccc(C=O)cc3)cc(N3CCC[C@@H](NC(=O)c4ccc(Cl)s4)C3)c12 [Example 539]
3,18,"Nc1ncnn2c(C3=CCN(C(=O)C4CC45CC5)C3)cc(N3CCC[C@@H](NC(=O)c4sc(Cl)cc4OCCN4CCOCC4)C3)c12 (stereo partly drawn) [Example 265, N-((3R)-1-(4-amino-7-(1-(spiro[2.2]pentane-1-carbonyl)-2,5-dihydro-1H-pyrrol-3-yl)pyrrolo[2,1-f][1,2,4]triazin-5-yl)piperidin-3-yl)-5-chloro-3-(2-morpholinoethoxy)thiophene-2-carboxamide]"
4,44,"CC(=O)N1CC=C(c2cc(N3CCC[C@@H](NC(=O)c4cccc(N5CCN(C)C(C)C5)n4)C3)c3c(N)ncnn23)C1 (stereo partly drawn) [Example 777, N-((R)-1-(7-(1-acetyl-2,5-dihydro-1H-pyrrol-3-yl)-4-aminopyrrolo[2,1-f][1,2,4]triazin-5-yl)piperidin-3-yl)-6-(3,4-dimethylpiperazin-1-yl)picolinamide]"
5,6,N#Cc1ccc(-c2cc(N3CCC[C@@H](NC(=O)c4cc5ccccc5o4)C3)c3c(N)ncnn23)cn1 [Example 649]
6,8,"Nc1ncnn2c(C3=CCN(C(=O)C4CCCCO4)C3)cc(N3CCC[C@@H](NC(=O)c4ccc(Cl)s4)C3)c12 (stereo partly drawn) [Example 897, N-((3R)-1-(4-amino-7-(1-(tetrahydro-2H-pyran-2-carbony1)-2,5-dihydro-1H-pyrrol-3-y1)pyrrolo[2,1-f][1,2,4]triazin-5-yl)piperidin-3-y1)-5-chlorothiophene-2-carboxamide]"
7,4,"CC(=O)N1CC=C(c2cc(N3CCC[C@@H](NC(=O)c4cccc(C)n4)C3)c3c(N)ncnn23)C1 [Example 448, (R)-N-(1-(7-(1-acetyl-2,5-dihydro-1H-pyrrol-3-yl)-4-aminopyrrolo[2,1-][1,2,4]triazin-5-yl)piperidin-3-yl)-6-methylpicolinamide]"
8,96,"CC(=O)N1CC=C(c2cc(N3CCC[C@@H](NC(=O)c4sc(C(F)F)cc4C4=CCN(C)CC4)C3)c3c(N)ncnn23)C1 [Example 322, (R)—N-(1-(7-(1-acetyl-2,5-dihydro-1H-pyrrol-3-yl)-4-aminopyrrolo[2,1-f][1,2,4]triazin-5-yl)piperidin-3-yl)-5-(difluoromethyl)-3-(1-methyl-1,2,3,6-tetrahydropyridin-4-yl)thiophene-2-carboxamide]"
9,18,COc1c(-c2cc(N3CCC[C@@H](NC(=O)c4ccc(Cl)s4)C3)c3c(N)ncnn23)ccnc1F [Example 227]
10,237,"CN1CCN(c2cccc(C(=O)N[C@@H]3CCCN(c4cc(-c5ccn(C)c(=O)c5)n5ncnc(N)c45)C3)n2)CC1 [Example 802, (R)-N-(1-(4-amino-7-(1-methyl-2-oxo-1,2-dihydropyridin-4-yl)pyrrolo[2,1-f][1,2,4]triazin-5-yl)piperidin-3-yl)-6-(4-methylpiperazin-1-yl)picolinamide]"
11,39,CC(=O)N1CC=C(c2cc(N3CCC[C@@H](NC(=O)c4ccnc(N(C)C)c4)C3)c3c(N)ncnn23)C1 [Example 717]
12,63,"N#Cc1ccc(-c2cc(N3CCC[C@@H](NC(=O)c4nc5ccccc5s4)C3)c3c(N)ncnn23)cn1 [Example 647, (R)-N-(1-(4-amino-7-(6-cyanopyridin-3-yl)pyrrolo[2,1-f][1,2,4]triazin-5-yl)piperidin-3-yl)benzo[d]thiazole-2-carboxamide]"
13,6,"CC(=O)N1CC=C(c2cc(N3CCC[C@@H](NC(=O)c4sc(Cl)cc4OC4CNC4)C3)c3c(N)ncnn23)C1 [Example 633, (R)-N-(1-(7-(1-acetyl-2,5-dihydro-1H-pyrrol-3-yl)-4-aminopyrrolo[2,1-f][1,2,4]triazin-5-yl)piperidin-3-yl)-3-(azetidin-3-yloxy)-5-chlorothiophene-2-carboxamide]"
14,8,"COc1ccc(C(=O)N[C@@H]2CCCN(c3cc(-c4ccc(S(C)(=O)=O)cc4)n4ncnc(N)c34)C2)s1 [Example 96, (R)-N-(1-(4-amino-7-(4-(methylsulfonyl)phenyl)pyrrolo[2,1-f][1,2,4]triazin-5-yl)piperidin-3-yl)-5-methoxythiophene-2-carboxamide]"
15,13,"CC(=O)N1CC=C(c2cc(N3CCC[C@@H](NC(=O)c4sc(C(F)F)cc4OCC4CCNCC4)C3)c3c(N)ncnn23)C1 [Example 350, (R)—N-(1-(7-(1-acetyl-2,5-dihydro-1H-pyrrol-3-yl)-4-aminopyrrolo[2,1-f][1,2,4]triazin-5-yl)piperidin-3-yl)-5-(difluoromethyl)-3-(piperidin-4-ylmethoxy)thiophene-2-carboxamide]"
16,24,"CC(=O)N1CC=C(c2cc(N3CCC[C@@H](NC(=O)c4cccc(NCCS(C)(=O)=O)n4)C3)c3c(N)ncnn23)C1 [Example 767, (R)-N-(1-(7-(1-acetyl-2,5-dihydro-1H-pyrrol-3-yl)-4-aminopyrrolo[2,1-f][1,2,4]triazin-5-yl)piperidin-3-yl)-6-((2-(methylsulfonyl)ethyl)amino)picolinamide]"
17,67,"COc1cnccc1C(=O)N[C@@H]1CCCN(c2cc(C3=CCN(C(C)=O)C3)n3ncnc(N)c23)C1 [Example 258, (R)—N-(1-(7-(1-acetyl-2,5-dihydro-1H-pyrrol-3-yl)-4-aminopyrrolo[2,1-f][1,2,4]triazin-5-yl)piperidin-3-yl)-3-methoxyisonicotinamide]"
18,67,"COc1ccc(C(=O)NC2CCCN(c3cc(-c4ccc(S(C)(=O)=O)cc4)n4ncnc(N)c34)C2)cc1 (stereo not shown) [Example 8, N-(1-(4-amino-7-(4-(methylsulfonyl)phenyl)pyrrolo[2,1-f][1,2,4]triazin-5-yl)piperidin-3-yl)-4-methoxybenzamide, TFA]"
19,6,"CN(C)CCOc1cc(Cl)sc1C(=O)N[C@@H]1CCCN(c2cc(-c3cccc(C=O)c3)n3ncnc(N)c23)C1 [Example 283, (R)-N-(1-(4-amino-7-(3-formylphenyl)pyrrolo[2,1-f][1,2,4]triazin-5-yl)piperidin-3-yl)-5-chloro-3-(2-(dimethylamino)ethoxy) thiophene-2-carboxamide]"
20,17,"Nc1ncnn2c(-c3ccnc(F)c3)cc(N3CCC[C@@H](NC(=O)c4csc5ccccc45)C3)c12 [Example 159, (R)-N-(1-(4-amino-7-(2-fluoropyridin-4-yl)pyrrolo[2,1-f][1,2,4]triazin-5-yl)piperidin-3-yl)benzo[b]thiophene-3-carboxamide, TFA]"

row,Compound,IC50 [nM]
1,"CC(C)(O)CCOc1cc(Cl)sc1C(=O)N[C@@H]1CCCN(c2cc(-c3ccnc(F)c3)n3ncnc(N)c23)C1 [Example 166, (R)—N-(1-(4-amino-7-(2-fluoropyridin-4-yl)pyrrolo[2,1-f][1,2,4]triazin-5-yl)piperidin-3-yl)-5-chloro-3-(3-hydroxy-3-methylbutoxy)thiophene-2-carboxamide]",3
2,"(R)-N-(1-(4-amino-7-(1-ethyl-1H-pyrazol-5-yl)pyrrolo[2,1-f][1,2,4]triazin-5-yl)piperidin-3-yl)-6-(4-methylpiperazin-1-yl)picolinamide [Example 790]",30
